According to ChEMBL document CHEMBL5260811, “Drug development against tuberculosis: Impact of alkaloids” (Eur J Med Chem, 2017):
Values after ≈ are worked out from the molar mass of the structure shown. Starred links: 1 amine or outer side, 2 acyl side, 3 side chain; linkers in the order of their positions; H or OH if unused. Positions of bridges follow the written chain, without caps; N, C: chain ends. Non-standard residues stand in square brackets, D forms with d. Residues, ends and D or L forms follow the SMILES beside them. *: point of attachment. X1 = NC1=N[C@@H]([C@H](N[*:1])C(=O)[*:2])C[C@H](O)N1; ΔAla(Z-3-ureido) = NC(=O)N/C=C(\N)C(=O)O; β3hOrn = NCCC[C@H](N)CC(=O)*; Dap = NC[C@H](N)C(=O)O

Columns and labels:
[1] = test system: Mycobacterium tuberculosis; assay: Antimycobacterial activity against Mycobacterium tuberculosis Rv2163c harbouring ftsI gene; format: functional
[2] = test system: Mycobacterium tuberculosis; assay: Antimycobacterial activity against Mycobacterium tuberculosis Rv2163c harbouring pbpB gene; format: functional
[3] = test system: Mycobacterium tuberculosis; assay: Antimycobacterial activity against Mycobacterium tuberculosis harbouring katG gene; format: functional
[4] = test system: Mycobacterium tuberculosis; assay: microbe, parasite or virus in culture
[5] = test system: Mycobacterium tuberculosis; assay: microbe, parasite or virus in culture; remark: listed apart in the source
[6] = test system: Mycobacterium tuberculosis; assay: Antimycobacterial activity against Mycobacterium tuberculosis harbouring rrs gene; format: functional
[7] = test system: Mycobacterium tuberculosis; assay: Antimycobacterial activity against Mycobacterium tuberculosis Rv0006 harbouring gyrA gene; format: functional
[8] = test system: Mycobacterium tuberculosis; assay: Antimycobacterial activity against Mycobacterium tuberculosis Rv0005 harbouring gyrB gene; format: functional
[9] = test system: Mycobacterium tuberculosis; assay: Antimycobacterial activity against Mycobacterium tuberculosis Rv0701 harbouring rplC gene; format: functional
[10] = test system: Mycobacterium tuberculosis; assay: Antimycobacterial activity against Mycobacterium tuberculosis Rv3790 harbouring DprE1 gene; format: functional
[11] = test system: Mycobacterium tuberculosis; assay: Antimycobacterial activity against Mycobacterium tuberculosis Rv2068c harbouring blaC gene; format: functional
[12] = test system: Mycobacterium tuberculosis; assay: Antimycobacterial activity against Mycobacterium tuberculosis Rv1484 harbouring inhA gene; format: functional
[13] = test system: Mycobacterium tuberculosis; assay: Antimycobacterial activity against Mycobacterium tuberculosis harbouring pncA gene; format: functional
[14] = test system: Mycobacterium tuberculosis; assay: Antimycobacterial activity against Mycobacterium tuberculosis Rv0667 harbouring rpoB gene; format: functional
[15] = test system: Mycobacterium tuberculosis; assay: microbe, parasite or virus in culture; remark: listed apart in the source
[16] = test system: Mycobacterium tuberculosis; assay: Antimycobacterial activity against Mycobacterium tuberculosis harbouring rpsL gene; format: functional
[17] = test system: Mycobacterium tuberculosis; assay: Antimycobacterial activity against Mycobacterium tuberculosis Rv2196 harbouring qcrB gene; format: functional
[18] = test system: Mycobacterium tuberculosis; assay: Antimycobacterial activity against multi-drug resistant Mycobacterium tuberculosis; format: functional
[19] = test system: Mycobacterium tuberculosis; assay: Antimycobacterial activity against Mycobacterium tuberculosis harbouring vph gene; format: functional

Q: Which MIC [1] does the source give for `C[C@@H](O)[C@H]1C(=O)N2C(C(=O)O)=C(SCCNC=N)C[C@H]12` [IMIPENEM ANHYDROUS] here?
A: 160 ng/mL (≈ 534 nM)

Q: And the MIC [2]?
A: 160 ng/mL (≈ 534 nM)

Q: For `NNC(=O)c1ccncc1` [ISONIAZID], which MIC [3] is on record?
A: 10 ng/mL (≈ 72.9 nM)

Q: And the MIC [4]?
A: 10 ng/mL (≈ 72.9 nM)

Q: And the MIC [5]?
A: 10 ng/mL (≈ 72.9 nM)

Q: For `NC[C@H]1O[C@H](O[C@H]2[C@H](O)[C@@H](O[C@H]3O[C@H](CO)[C@@H](O)[C@H](N)[C@H]3O)[C@H](N)C[C@@H]2N)[C@H](O)[C@@H](O)[C@@H]1O` [KANAMYCIN], which MIC [6] is on record?
A: 1000 ng/mL (≈ 2060 nM)

Q: What does the source list for `C[C@H]1COc2c(N3CCN(C)CC3)c(F)cc3c(=O)c(C(=O)O)cn1c23.C[C@H]1COc2c(N3CCN(C)CC3)c(F)cc3c(=O)c(C(=O)O)cn1c23.O` [LEVOFLOXACIN]?
A: MIC [7]: 500 ng/mL; MIC [8]: 500 ng/mL

Q: Which MIC [9] does the source give for `CC(=O)NC[C@H]1CN(c2ccc(N3CCOCC3)c(F)c2)C(=O)O1` [LINEZOLID] here?
A: 500 ng/mL (≈ 1480 nM)

Q: `O=c1nc(N2CCN(CC3CCCCC3)CC2)sc2c([N+](=O)[O-])cc(C(F)(F)F)cc12` [MACOZINONE] was tested. Which MIC [10] did it give?
A: 0.3 ng/mL (≈ 0.657 nM)

Q: How did the MIC [2] turn out when `C[C@@H](O)[C@H]1C(=O)N2C(C(=O)O)=C(S[C@@H]3CN[C@H](C(=O)N(C)C)C3)[C@H](C)[C@H]12` [MEROPENEM] was run?
A: 500 ng/mL (≈ 1300 nM)

Q: What about the MIC [11] of the same compound?
A: 500 ng/mL (≈ 1300 nM)

Q: Which results are given for `CC1COc2c(N3CCN(C)CC3)c(F)cc3c(=O)c(C(=O)O)cn1c23` (stereo unspecified) [OFLOXACIN]?
A: MIC [7]: 125 ng/mL (≈ 346 nM); MIC [8]: 125 ng/mL (≈ 346 nM)

Q: How did the MIC [9] turn out when `O=C([C@@H](O)CO)N1CC=C(c2c(F)cc(N3C[C@H](COc4ccon4)OC3=O)cc2F)CC1` [POSIZOLID] was run?
A: 250 ng/mL (≈ 537 nM)

Q: `CCCc1cc(C(N)=S)ccn1` [PROTIONAMIDE] was tested. Which MIC [12] did it give?
A: 300 ng/mL (≈ 1660 nM)

Q: Which MIC [13] does the source give for `NC(=O)c1cnccn1` [PYRAZINAMIDE] here?
A: 20000 ng/mL (≈ 162000 nM)

Q: `CO[C@H]1/C=C/O[C@@]2(C)Oc3c(C)c(O)c4c(c3C2=O)C2=NC3(CCN(CC(C)C)CC3)NC2=C(NC(=O)/C(C)=C\C=C\[C@H](C)[C@H](O)[C@@H](C)[C@@H](O)[C@@H](C)[C@H](OC(C)=O)[C@@H]1C)C4=O` [RIFABUTIN] was tested. Which MIC [14] did it give?
A: 15 ng/mL (≈ 17.7 nM)

Q: How did the MIC [15] turn out when `CO[C@H]1/C=C/O[C@@]2(C)Oc3c(C)c(O)c4c(O)c(c(/C=N/N5CCN(C)CC5)c(O)c4c3C2=O)NC(=O)/C(C)=C\C=C\[C@H](C)[C@H](O)[C@@H](C)[C@@H](O)[C@@H](C)[C@H](OC(C)=O)[C@@H]1C` [RIFAMPIN] was run?
A: 50 ng/mL (≈ 60.8 nM)

Q: `CO[C@H]1/C=C/O[C@@]2(C)Oc3c(C)c(O)c4c(O)c(c(/C=N/N5CCN(C6CCCC6)CC5)c(O)c4c3C2=O)NC(=O)/C(C)=C\C=C\[C@H](C)[C@H](O)[C@@H](C)[C@@H](O)[C@@H](C)[C@H](OC(C)=O)[C@@H]1C` [RIFAPENTINE] was tested. Which MIC [14] did it give?
A: 30 ng/mL (≈ 34.2 nM)

Q: How did the MIC [16] turn out when `CN[C@@H]1[C@H](O[C@H]2[C@H](O[C@H]3[C@H](O)[C@@H](O)[C@H](N=C(N)N)[C@@H](O)[C@@H]3N=C(N)N)O[C@@H](C)[C@]2(O)C=O)O[C@@H](CO)[C@H](O)[C@H]1O` [STREPTOMYCIN] was run?
A: 2000 ng/mL (≈ 3440 nM)

Q: What about the MIC [6] of the same compound?
A: 2000 ng/mL (≈ 3440 nM)

Q: With `CC(=O)NC[C@H]1CN(c2ccc(N3CCSCC3)c(F)c2)C(=O)O1` [SUTEZOLID] as the compound, how does the MIC [9] read?
A: 500 ng/mL (≈ 1410 nM)

Q: How did the MIC [17] turn out when `CCc1nc2ccc(Cl)cn2c1C(=O)NCc1ccc(N2CCC(c3ccc(OC(F)(F)F)cc3)CC2)cc1` [TELACEBEC] was run?
A: 2.7 nM (≈ 1.5 ng/mL)

Q: How did the MIC [18] turn out when `O=C1c2ccccc2-n2c1nc1ccccc1c2=O` [TRYPTANTHRIN] was run?
A: 0.016 ng/mL (≈ 0.0645 nM)

Q: With `NCCC[C@H](N)CC(=O)N[C@H]1CNC(=O)[C@H]([C@H]2C[C@H](O)NC(N)=N2)NC(=O)/C(=C/NC(N)=O)NC(=O)[C@H](CO)NC(=O)[C@H](CO)NC1=O` [VIOMYCIN] (β3hOrn-[Dap]SS[ΔAla(Z-3-ureido)][X1]; lactam 1-C) as the compound, how does the MIC [19] read?
A: 4000 ng/mL (≈ 5830 nM)
